Experimental data as given in US9499550B2 (BRISTOL-MYERS SQUIBB COMPANY, priority 2012, dated 2016).
Read-outs that look alike come from different tables or passages of the source.

Key:
[1] = system: HCV genotype 1a (H77 strain) replicon in HUH-7 cells; test: HCV replicon luciferase reporter assay, genotype 1a; type: cell-based; details: 3 days incubation
Procedure, shortened: (§1)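 Replicon inhibition for both genotypes was measured as Renilla luciferase signal (EnduRen, 7.5 μM final, 2 h) after 3-day, 37° C exposure of replicon-bearing HUH-7 cells in 4% FCS DMEM, 0.5% DMSO. The 1b construct carries S1179I; the 1a H77 construct carries P1496L and S2204I. Twenty-point, 3-fold dilutions were fitted four-parametrically for EC50, and CC50 was taken from multiplexed Cell Titer-Blue.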

[2] = system: HCV genotype 1b (Con1) replicon in HUH-7 cells; test: HCV replicon luciferase reporter assay, genotype 1b; type: cell-based; details: 3 days incubation
Procedure, shortened: as §1

[3] = Hepatitis C virus, Huh-7, 72 h, HCV genotype 1a replicon luciferase, read-out: LE_1a (EC50, range)
[4] = Hepatitis C virus, Huh-7, 72 h, HCV genotype 1b replicon luciferase, read-out: LE_1b (EC50, range)
[5] = Hepatitis C virus, GETYPE1A, Huh-7, 72 h, HCV genotype 1a replicon luciferase, read-out: LE_1a (EC50, range)
[6] = Hepatitis C virus, GETYPE1B, Huh-7, 72 h, HCV genotype 1b replicon luciferase, read-out: LE_1b (EC50, range)
[7] = Hepatitis C virus, Huh-7, 72 h, HCV genotype 1a replicon luciferase assay, range class, read-out: LE_1a (EC50, range)
[8] = Hepatitis C virus, Huh-7, 72 h, HCV genotype 1b replicon luciferase assay, range class, read-out: LE_1b (EC50, range)

Compound: C[C@@H]1CC/C=C\[C@@H]2C[C@@]2(C(=O)NS(=O)(=O)C2(CF)CC2)NC(=O)[C@@H]2C[C@@H](Oc3nc4c(c5ccccc35)OCCC4)CN2C(=O)[C@@H](NC(=O)OC(C)(C)C)[C@H](C)C1 [Compound 6026, tert-butyl ((2R,6S,7R,9R,13aS,14aR,16aS,Z)-2-((3,4-dihydro-2H-pyrano[3,2-c]isoquinolin-6-yl)oxy)-14a-(((1-(fluoromethyl)cyclopropyl)sulfonyl)carbamoyl)-7,9-dimethyl-5,16-dioxo-1,2,3,5,6,7,8,9,10,11,13a,14,14a,15,16,16a-hexadecahydrocyclopropa[e]pyrrolo[1,2-a][1,4]diazacyclopentadecin-6-yl)carbamate]
- EC50 ([1]; Hepatitis C virus, Huh-7, 72 h, HCV genotype 1a replicon luciferase, read-out: LE_1a (EC50)): 1.13 nM
- EC50 [1, 3]: < 5.46 nM
- EC50 ([2]; Hepatitis C virus, Huh-7, 72 h, HCV genotype 1b replicon luciferase, read-out: LE_1b (EC50)): 0.7 nM
- EC50 [2, 4]: < 5.46 nM

Compound: CC[C@@H]1C[C@H](C)CC/C=C\[C@@H]2C[C@@]2(C(=O)NS(=O)(=O)C2(C)CC2)NC(=O)[C@@H]2C[C@@H](Oc3cc(-n4cccn4)nc4cc(OC)ccc34)CN2C(=O)[C@H]1NC(=O)OC(C)(C)C(F)(F)F [Compound 4246]
- EC50 [1, 5]: 1.01 to 5 nM
- EC50 [2, 6]: 0.51 to 1 nM

Compound: 3,3-difluoro-2-methylbutan-2-yl((2R,6S,7R,9R,13aS,14aR,16aS,Z)-7-ethyl-2-((2-(3-fluoro-4-isopropoxyphenyl)-7-methoxyquinolin-4-yl)oxy)-9-methyl-14a-(((1-methylcyclopropyl)sulfonyl)carbamoyl)-5,16-dioxo-1,2,3,5,6,7,8,9,10,11,13a,14,14a,15,16,16a-hexadecahydrocyclopropa[e]pyrrolo[1,2-a][1,4]diazacyclopentadecin-6-yl)carbamate [Compound 5550]
- EC50 ([1]; HCV genotype 1a replicon luciferase, read-out: LE_1a (EC50, range)): 0.51 to 1 nM
- EC50 ([2]; HCV genotype 1b replicon luciferase, read-out: LE_1b (EC50, range)): 1.01 to 5 nM

Compound: COc1ccc2c(O[C@@H]3C[C@H]4C(=O)N[C@]5(C(=O)NS(=O)(=O)C6CC6)C[C@H]5/C=C\CC[C@H](C)C[C@@H](C)[C@H](NC(=O)OCC5(C)CC5)C(=O)N4C3)nc(-c3ccc(OC(C)C)c(F)c3)cc2c1 [Compound 3065, (1-methylcyclopropyl)methyl ((2R,6S,7R,9S,13aS,14aR,16aS,Z)-14a-((cyclopropylsulfonyl)carbamoyl)-2-((3-(3-fluoro-4-isopropoxyphenyl)-6-methoxyisoquinolin-1-yl)oxy)-7,9-dimethyl-5,16-dioxo-1,2,3,5,6,7,8,9,10,11,13a,14,14a,15,16,16a-hexadecahydrocyclopropa[e]pyrrolo[1,2-a][1,4]diazacyclopentadecin-6-yl)carbamate]
- EC50 [1, 7]: 4.82 to 103 nM
- EC50 [2, 8]: < 5.46 nM

Compound: C[C@@H]1CC/C=C\[C@@H]2C[C@@]2(C(=O)NS(=O)(=O)C2CC2)NC(=O)[C@@H]2C[C@@H](Oc3ncc(OCC(F)F)c4ccccc34)CN2C(=O)[C@@H](NC(=O)OC(C)(C)C)[C@H](C)C1 [Compound 1028, tert-butyl ((2R,6S,7R,9R,13aS,14aR,16aS,Z)-14a-((cyclopropylsulfonyl)carbamoyl)-2-((4-(2,2-difluoroethoxyl)isoquinolin-1-yl)oxy)-7,9-dimethyl-5,16-dioxo-1,2,3,5,6,7,8,9,10,11,13a,14,14a,15,16,16a-hexadecahydrocyclopropa[e]pyrrolo[1,2-a][1,4]diazacyclopentadecin-6-yl)carbamate]
- EC50 [1, 7]: < 5.46 nM
- EC50 [2, 8]: < 5.46 nM

Compound: COc1ccc(-c2nc(O[C@@H]3C[C@H]4C(=O)N[C@]5(C(=O)NS(=O)(=O)C6CC6)C[C@H]5/C=C\CC[C@H](C)C[C@@H](C)[C@H](NC(=O)OC(C)(C)C)C(=O)N4C3)c3ccc(OC)cc3n2)cc1 [Compound 5001, tert-butyl ((2R,6S,7R,9S,13aS,14aR,16aS,Z)-14a-((cyclopropylsulfonyl)carbamoyl)-2-((7-methoxy-2-(4-methoxyphenyl)quinazolin-4-yl)oxy)-7,9-dimethyl-5,16-dioxo-1,2,3,5,6,7,8,9,10,11,13a,14,14a,15,16,16a-hexadecahydrocyclopropa[e]pyrrolo[1,2-a][1,4]diazacyclopentadecin-6-yl)carbamate]
- EC50 [1, 3]: < 5.46 nM
- EC50 [2, 4]: < 5.46 nM

Compound: COc1ccc2ncc(O[C@@H]3C[C@H]4C(=O)N[C@]5(C(=O)NS(=O)(=O)C6(CF)CC6)C[C@H]5/C=C\CC[C@@H](C)C[C@@H](C)[C@H](NC(=O)OC(C)(C)C(F)(F)F)C(=O)N4C3)nc2c1 [Compound 4088]
- EC50 [1, 5]: < 5.46 nM
- EC50 [2, 6]: < 5.46 nM

Compound: CC[C@@H]1C[C@H](C)CC/C=C\[C@@H]2C[C@@]2(C(=O)NS(=O)(=O)C2(C)CC2)NC(=O)[C@@H]2C[C@@H](Oc3ncc(N4CCOCC4)c4cc(OC)c(F)cc34)CN2C(=O)[C@H]1NC(=O)OC(C)(C)C(F)(F)F [Compound 4237]
- EC50 [1, 5]: < 5.46 nM
- EC50 [2, 6]: < 5.46 nM

Compound: [2H]C([2H])([2H])Oc1cnc(O[C@@H]2C[C@H]3C(=O)N[C@]4(C(=O)NS(=O)(=O)C5(C)CC5)C[C@H]4/C=C\CC[C@@H](C)C[C@@H](C)[C@H](NC(=O)OC(C)(C)C(C)(F)F)C(=O)N3C2)c2ccccc12 [Compound 5109, 3,3-difluoro-2-methylbutan-2-yl((2R,6S,7R,9R,13aS,14aR,16aS,Z)-7,9-dimethyl-14a-(((1-methylcyclopropyl)sulfonyl)carbamoyl)-5,16-dioxo-2-((4-(trideuteromethoxy)isoquinolin-1-yl)oxy)-1,2,3,5,6,7,8,9,10,11,13a,14,14a,15,16,16a-hexadecahydrocyclopropa[e]pyrrolo[1,2-a][1,4]diazacyclopentadecin-6-yl)carbamate]
- EC50 [1, 3]: < 5.46 nM
- EC50 [2, 4]: < 5.46 nM

Compound: COc1ccc2c(O[C@@H]3C[C@H]4C(=O)N[C@]5(C(=O)NS(=O)(=O)C6(CF)CC6)C[C@H]5/C=C\CC[C@@H](C)C[C@@H](C)[C@H](NC(=O)OC(C)(C)C)C(=O)N4C3)ncc(OC)c2c1 [Compound 4156, tert-butyl (2R,6S,7R,9R,13aS,14aR,16aS,Z)-2-(4,6-dimethoxyisoquinolin-1-yloxy)-14a-(1-(fluoromethyl)cyclopropylsulfonylcarbamoyl)-7,9-dimethyl-5,16-dioxo-1,2,3,5,6,7,8,9,10,11,13a,14,14a,15,16,16a-hexadecahydrocyclopropa[e]pyrrolo[1,2-a][1,4]diazacyclopentadecin-6-ylcarbamate]
- EC50 [1, 3]: < 5.46 nM
- EC50 [2, 4]: < 5.46 nM

Compound: CC[C@@H]1C[C@@H](C)CC/C=C\[C@@H]2C[C@@]2(C(=O)NS(=O)(=O)C2(C)CC2)NC(=O)[C@@H]2C[C@@H](Oc3nc(OC)cc4cc(OC)ccc34)CN2C(=O)[C@H]1NC(=O)OC(C)(C)C(F)(F)F [Compound 1119, 1,1,1-trifluoro-2-methylpropan-2-yl((2R,6S,7R,9S,13aS,14aR,16aS,Z)-2-((3,6-dimethoxyisoquinolin-1-yl)oxy)-7-ethyl-9-methyl-14a-(((1-methylcyclopropyl)sulfonyl)carbamoyl)-5,16-dioxo-1,2,3,5,6,7,8,9,10,11,13a,14,14a,15,16,16a-hexadecahydrocyclopropa[e]pyrrolo[1,2-a][1,4]diazacyclopentadecin-6-yl)carbamate]
- EC50 [1, 7]: < 5.46 nM
- EC50 [2, 8]: < 5.46 nM

Compound: COc1ccc2c(O[C@@H]3C[C@H]4C(=O)N[C@]5(C(=O)NS(=O)(=O)C6(C)CC6)C[C@H]5/C=C\CC[C@H](C)C[C@@H](C)[C@H](NC(=O)NC(C)(C)C)C(=O)N4C3)nc(-c3ccc(OC(C)C)nc3)cc2c1 [Compound 5230, (2R,6S,7R,9S,13aS,14aR,16aS,Z)-6-(3-(tert-butyl)ureido)-2-((3-(6-isopropoxypyridin-3-yl)-6-methoxyisoquinolin-1-yl)oxy)-7,9-dimethyl-N-((1-methylcyclopropyl)sulfonyl)-5,16-dioxo-1,2,3,5,6,7,8,9,10,11,13a,14,14a,15,16,16a-hexadecahydrocyclopropa[e]pyrrolo[1,2-a][1,4]diazacyclopentadecine-14a-carboxamide]
- EC50 [1, 3]: 4.82 to 103 nM
- EC50 [2, 4]: < 5.46 nM
